Source: PMC11702208 (RSC Advances, 2025)
Values joined by “and” are separate entries in the source; they are usually repeats but may differ in a detail not shown here. Equal entries are not always repeated. Where two headings read alike, the source gives them in different places.

Tests used:
SR = experiment: NCI cytotoxicity screen; assay type: cell-based, human; details: for GI %: 10.0 μM one dose
HL-60(TB) = details: 10.0 μM one dose
SF-268 = experiment: NCI cytotoxicity screen; assay type: cell-based, human; details: for GI %: 10.0 μM one dose
UACC-62 = experiment: NCI cytotoxicity screen; assay type: cell-based, human; details: for GI %: 10.0 μM one dose
HCT-15 = experiment: NCI cytotoxicity screen; assay type: cell-based, human; details: for GI %: 10.0 μM one dose
SW-620 = experiment: NCI cytotoxicity screen; assay type: cell-based, human; details: for GI %: 10.0 μM one dose
MDA-MB-231/ATCC = experiment: NCI cytotoxicity screen; assay type: cell-based, human; details: for GI %: 10.0 μM one dose, MDA-MB-231/ATCC
T-47D = experiment: NCI cytotoxicity screen; assay type: cell-based, human; details: for GI %: 10.0 μM one dose, T-47D
NCI-H226 = experiment: NCI cytotoxicity screen; assay type: cell-based, human; details: for GI %: 10.0 μM one dose
MALME-3M = experiment: NCI cytotoxicity screen; assay type: cell-based, human; details: for GI %: 10.0 μM one dose, MALME-3M
UACC-257 = experiment: NCI cytotoxicity screen; assay type: cell-based, human; details: for GI %: 10.0 μM one dose
COX-2 = target: T1, COX-2 (Ovis aries, UniProt P79208); experiment: Colorimetric COX; assay type: biochemical, ovine
T1 sequence (P79208 17-603): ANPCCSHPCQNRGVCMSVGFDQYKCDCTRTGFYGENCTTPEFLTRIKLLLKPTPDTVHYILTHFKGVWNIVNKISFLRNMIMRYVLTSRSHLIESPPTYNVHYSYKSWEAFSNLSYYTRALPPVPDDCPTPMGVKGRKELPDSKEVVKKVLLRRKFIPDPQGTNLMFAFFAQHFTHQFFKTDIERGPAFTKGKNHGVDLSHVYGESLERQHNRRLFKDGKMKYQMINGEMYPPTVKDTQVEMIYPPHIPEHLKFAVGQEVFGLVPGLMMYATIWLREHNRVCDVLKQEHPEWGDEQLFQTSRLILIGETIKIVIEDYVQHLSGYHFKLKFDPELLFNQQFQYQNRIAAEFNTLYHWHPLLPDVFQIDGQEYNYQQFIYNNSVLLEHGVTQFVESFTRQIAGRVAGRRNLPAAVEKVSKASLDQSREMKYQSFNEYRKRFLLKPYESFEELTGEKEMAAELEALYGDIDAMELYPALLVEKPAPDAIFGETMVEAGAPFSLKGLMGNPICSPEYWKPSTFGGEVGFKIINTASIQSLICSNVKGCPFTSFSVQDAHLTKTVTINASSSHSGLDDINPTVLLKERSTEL

NCI/ADR-RES = experiment: NCI cytotoxicity screen; assay type: cell-based, human
A549/ATCC = experiment: NCI cytotoxicity screen; assay type: cell-based, human; details: for GI %: 10.0 μM one dose, A549/ATCC
SN12C = experiment: NCI cytotoxicity screen; assay type: cell-based, human; details: for GI %: 10.0 μM one dose, SN-12C
EGFR = EGFR (Homo sapiens, UniProt P00533); experiment: biochemical; details: IC50 EGFR inhibition
Sequence of EGFR (P00533 25-1210): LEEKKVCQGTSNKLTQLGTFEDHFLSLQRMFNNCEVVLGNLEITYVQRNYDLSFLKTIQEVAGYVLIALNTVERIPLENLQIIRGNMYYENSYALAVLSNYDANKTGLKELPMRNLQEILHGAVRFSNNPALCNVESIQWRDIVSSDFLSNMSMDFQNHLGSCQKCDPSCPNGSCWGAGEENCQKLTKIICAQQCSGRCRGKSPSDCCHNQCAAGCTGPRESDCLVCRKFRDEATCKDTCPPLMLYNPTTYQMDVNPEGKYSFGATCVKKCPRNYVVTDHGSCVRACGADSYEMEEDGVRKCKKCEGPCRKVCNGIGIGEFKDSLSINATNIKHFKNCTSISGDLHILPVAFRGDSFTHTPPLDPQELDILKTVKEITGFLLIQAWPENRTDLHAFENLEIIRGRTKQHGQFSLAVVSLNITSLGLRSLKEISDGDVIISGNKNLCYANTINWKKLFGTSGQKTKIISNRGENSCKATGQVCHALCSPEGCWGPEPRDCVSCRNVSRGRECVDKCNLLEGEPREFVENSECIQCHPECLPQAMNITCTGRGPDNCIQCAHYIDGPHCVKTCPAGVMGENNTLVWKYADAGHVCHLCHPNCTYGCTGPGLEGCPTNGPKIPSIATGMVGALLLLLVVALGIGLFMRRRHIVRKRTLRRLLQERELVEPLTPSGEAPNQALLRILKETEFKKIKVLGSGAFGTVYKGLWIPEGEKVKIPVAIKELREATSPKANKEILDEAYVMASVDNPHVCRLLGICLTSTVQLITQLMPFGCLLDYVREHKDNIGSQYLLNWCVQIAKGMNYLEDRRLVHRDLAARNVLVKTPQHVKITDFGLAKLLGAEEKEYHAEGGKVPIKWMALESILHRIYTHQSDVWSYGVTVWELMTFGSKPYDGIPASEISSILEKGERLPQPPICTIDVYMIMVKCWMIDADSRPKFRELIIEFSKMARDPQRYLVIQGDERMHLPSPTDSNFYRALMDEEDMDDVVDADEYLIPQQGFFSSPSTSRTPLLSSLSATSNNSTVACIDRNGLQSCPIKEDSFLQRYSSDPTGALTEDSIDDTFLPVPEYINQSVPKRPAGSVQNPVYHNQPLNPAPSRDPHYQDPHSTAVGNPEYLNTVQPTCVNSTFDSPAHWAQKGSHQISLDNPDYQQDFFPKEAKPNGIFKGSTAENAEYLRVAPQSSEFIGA

HER2 = HER2 (Homo sapiens, UniProt P04626); experiment: HER2 tyrosine kinase assay; assay type: biochemical; details: IC50 HER2 inhibition
Sequence of HER2 (P04626 23-1255): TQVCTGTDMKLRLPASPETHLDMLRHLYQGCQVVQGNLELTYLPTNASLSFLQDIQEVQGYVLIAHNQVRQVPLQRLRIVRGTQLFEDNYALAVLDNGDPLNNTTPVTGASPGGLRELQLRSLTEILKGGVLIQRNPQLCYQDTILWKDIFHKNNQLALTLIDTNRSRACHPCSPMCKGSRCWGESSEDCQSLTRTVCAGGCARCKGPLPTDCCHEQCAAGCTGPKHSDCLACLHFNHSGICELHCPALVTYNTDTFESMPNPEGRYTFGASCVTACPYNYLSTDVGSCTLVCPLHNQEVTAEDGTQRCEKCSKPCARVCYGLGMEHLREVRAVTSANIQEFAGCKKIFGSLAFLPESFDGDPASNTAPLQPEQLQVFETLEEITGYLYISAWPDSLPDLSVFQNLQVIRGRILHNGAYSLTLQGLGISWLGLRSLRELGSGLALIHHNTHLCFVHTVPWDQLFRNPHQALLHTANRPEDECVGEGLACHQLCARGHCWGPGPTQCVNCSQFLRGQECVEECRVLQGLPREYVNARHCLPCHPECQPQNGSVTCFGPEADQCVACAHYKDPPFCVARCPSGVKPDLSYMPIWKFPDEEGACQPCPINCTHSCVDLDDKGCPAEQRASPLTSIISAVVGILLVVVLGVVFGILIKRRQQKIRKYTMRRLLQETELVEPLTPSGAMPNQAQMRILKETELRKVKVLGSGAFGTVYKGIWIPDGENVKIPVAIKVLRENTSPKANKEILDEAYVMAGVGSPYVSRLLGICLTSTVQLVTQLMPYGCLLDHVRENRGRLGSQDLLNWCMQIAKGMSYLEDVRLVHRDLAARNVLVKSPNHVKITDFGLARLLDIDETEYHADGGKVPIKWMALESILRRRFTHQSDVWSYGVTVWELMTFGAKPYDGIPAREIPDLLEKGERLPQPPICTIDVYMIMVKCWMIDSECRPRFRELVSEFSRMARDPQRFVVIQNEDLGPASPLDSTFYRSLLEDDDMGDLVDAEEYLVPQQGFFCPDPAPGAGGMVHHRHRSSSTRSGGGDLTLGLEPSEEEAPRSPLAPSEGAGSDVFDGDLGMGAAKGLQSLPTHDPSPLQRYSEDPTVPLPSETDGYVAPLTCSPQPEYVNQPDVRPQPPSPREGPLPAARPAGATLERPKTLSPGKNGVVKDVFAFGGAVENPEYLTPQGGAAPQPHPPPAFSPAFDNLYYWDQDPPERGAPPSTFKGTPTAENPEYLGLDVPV

OVCAR-3 = experiment: NCI cytotoxicity screen; assay type: cell-based, human; details: for GI %: 10.0 μM one dose, IGROV-3
59 cancer cell lines = experiment: NCI cytotoxicity screen, full panel; assay type: cell-based, human; details: for MG% (mean growth percent): 10.0 μM one dose, 59 cell lines
CDK9 = CDK9 (Homo sapiens, UniProt P50750); experiment: biochemical; details: IC50 CDK9 inhibition
Sequence of CDK9 (P50750 whole entry): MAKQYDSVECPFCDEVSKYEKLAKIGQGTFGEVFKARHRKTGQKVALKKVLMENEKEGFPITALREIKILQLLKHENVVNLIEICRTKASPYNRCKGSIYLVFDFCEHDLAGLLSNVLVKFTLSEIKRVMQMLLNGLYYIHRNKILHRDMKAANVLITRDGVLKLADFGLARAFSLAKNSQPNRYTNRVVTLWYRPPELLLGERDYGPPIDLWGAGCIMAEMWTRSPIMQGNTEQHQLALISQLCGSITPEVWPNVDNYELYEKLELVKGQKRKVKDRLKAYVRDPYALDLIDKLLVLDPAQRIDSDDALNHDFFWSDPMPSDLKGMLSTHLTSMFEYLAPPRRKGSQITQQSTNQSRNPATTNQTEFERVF
Sequence of CDK9 (O60563 whole entry partner): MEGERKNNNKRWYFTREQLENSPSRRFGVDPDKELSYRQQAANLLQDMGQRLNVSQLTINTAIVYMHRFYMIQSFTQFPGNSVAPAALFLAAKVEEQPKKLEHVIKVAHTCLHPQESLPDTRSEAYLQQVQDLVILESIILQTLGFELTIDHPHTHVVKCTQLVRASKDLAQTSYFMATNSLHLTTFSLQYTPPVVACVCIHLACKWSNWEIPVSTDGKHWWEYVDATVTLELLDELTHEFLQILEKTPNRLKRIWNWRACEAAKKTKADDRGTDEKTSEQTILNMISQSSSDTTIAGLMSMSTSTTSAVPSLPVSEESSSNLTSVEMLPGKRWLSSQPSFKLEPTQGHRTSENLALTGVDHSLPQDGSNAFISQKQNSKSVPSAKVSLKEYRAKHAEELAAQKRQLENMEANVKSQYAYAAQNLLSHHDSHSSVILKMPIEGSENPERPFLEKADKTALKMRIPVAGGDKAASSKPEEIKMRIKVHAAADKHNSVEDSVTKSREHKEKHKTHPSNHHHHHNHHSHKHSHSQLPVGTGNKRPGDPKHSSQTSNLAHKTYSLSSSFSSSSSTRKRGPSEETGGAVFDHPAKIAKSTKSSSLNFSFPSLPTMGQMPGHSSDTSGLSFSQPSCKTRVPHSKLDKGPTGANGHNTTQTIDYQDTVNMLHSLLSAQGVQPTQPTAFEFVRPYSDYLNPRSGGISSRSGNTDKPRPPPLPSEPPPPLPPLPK

K-562 = details: 10.0 μM one dose
NCI-H522 = experiment: NCI cytotoxicity screen; assay type: cell-based, human; details: for GI %: 10.0 μM one dose
BT-549 = experiment: NCI cytotoxicity screen; assay type: cell-based, human; details: for GI %: 10.0 μM one dose
[1] = system: Ovarian cancer subpanel tumor cell lines; experiment: NCI cytotoxicity screen, subpanel; assay type: cell-based, human
KM12 = experiment: NCI cytotoxicity screen; assay type: cell-based, human; details: for GI %: 10.0 μM one dose, KM-12
T-47D cells = experiment: Cell cycle analysis; assay type: cell-based; details: compound at IC50 concentration
SK-MEL-5 = experiment: NCI cytotoxicity screen; assay type: cell-based, human; details: for GI %: 10.0 μM one dose
[2] = system: Breast cancer subpanel tumor cell lines; experiment: NCI cytotoxicity screen, subpanel; assay type: cell-based, human
[3] = system: Renal cancer subpanel tumor cell lines; experiment: NCI cytotoxicity screen, subpanel; assay type: cell-based, human
[4] = system: Colon cancer subpanel tumor cell lines; experiment: NCI cytotoxicity screen, subpanel; assay type: cell-based, human
MOLT4 cells [5] = experiment: Annexin V-FITC/PI apoptosis assay; assay type: cell-based
MOLT4 cells [6] = experiment: Cell cycle analysis; assay type: cell-based; details: compound at IC50 concentration

SMILES: CCN(CC)c1ccc(C=NNC(=O)CSc2nc3ccccc3c(=O)n2Cc2ccc(S(N)(=O)=O)cc2)c(O)c1 [Compound 5, 4-((2-((2-(2-(4-(Diethylamino)-2-hydroxybenzylidene)hydrazineyl)-2-oxoethyl)thio)-4-oxoquinazolin-3(4H)-yl)methyl)benzenesulfonamide]
- GI % (SR): 90%
- GI50 (SR; Homo sapiens): 212 nM
- GI % (HL-60(TB)): 120%
- GI % (SF-268): 82%
- GI50 (SF-268; Homo sapiens): 766 nM
- GI % (UACC-62): 94%
- GI50 (UACC-62; Homo sapiens): 886 nM
- GI % (HCT-15): 53%
- GI50 (HCT-15; Homo sapiens): 3620 nM
- GI % (SW-620): 79%
- GI50 (SW-620; Homo sapiens): 949 nM
- GI % (MDA-MB-231/ATCC): 75%
- GI50 (MDA-MB-231/ATCC; Homo sapiens, MDA-MB-231): 643 nM
- GI % (T-47D): 94%
- GI50 (T-47D; Homo sapiens, T47D): 925 nM
- GI % (NCI-H226): 69%
- GI50 (NCI-H226; Homo sapiens): 894 nM
- GI % (MALME-3M): 69%
- GI50 (MALME-3M; Homo sapiens, Malme-3M): 1090 nM
- GI % (UACC-257): 87%
- GI50 (UACC-257; Homo sapiens): 3030 nM
- IC50 (COX-2): 3320 ± 60 nM
- GI % (NCI/ADR-RES; 10.0 μM one dose): 13%
- GI50 (NCI/ADR-RES; Homo sapiens, five-dose): > 100000 nM
- GI % (A549/ATCC): 71%
- GI50 (A549/ATCC; Homo sapiens, A549): 1570 nM
- GI % (SN12C): 68%
- GI50 (SN12C; Homo sapiens, SN12C): 1930 nM
- IC50 (EGFR): 84.4 nM
- IC50 (HER2): 53.9 nM
- GI % (OVCAR-3): 85%
- GI50 (OVCAR-3; Homo sapiens, OVCAR-3): 287 nM
- MG% (mean growth percent) (59 cancer cell lines): 23.5% and 23.46%
- GI50 (59 cancer cell lines; Homo sapiens, read-out: GI50 MG_MID, full panel mean-graph midpoint): 1000 nM
- CC50 (59 cancer cell lines; Homo sapiens, read-out: LC50 MG_MID, full panel mean-graph midpoint): > 100000 nM
- TGI MG_MID (59 cancer cell lines; full panel mean-graph midpoint): 89200 nM and 89240 nM
- GI50 (59 cancer cell lines; read-out: GI50 MG_MID, full panel mean-graph midpoint): 1100 nM
- CC50 (59 cancer cell lines; read-out: LC50 MG_MID, full panel mean-graph midpoint): > 100000 nM
- IC50 (CDK9): 147 ± 3.6 nM
- GI % (K-562): 94%
- GI % (NCI-H522): 126%
- GI50 (NCI-H522; Homo sapiens): 2400 nM
- GI % (BT-549): 67%
- GI50 (BT-549; Homo sapiens): 2680 nM
- CC50 ([1]; Homo sapiens, read-out: LC50): > 100000 nM
- GI50 ([1]; Homo sapiens, subpanel value, Ovarian cancer): 15100 nM
- GI50 ([1]; subpanel value, Ovarian cancer): 15100 nM
- TGI ([1]; subpanel value, Ovarian cancer): c (Compounds showed values > 100 μM)
- GI % (KM12): 85%
- GI50 (KM12; Homo sapiens, KM12): 569 nM
- %G0-G1 (T-47D cells): 46.31%
- %G2-M (T-47D cells): 26.3%
- %S (T-47D cells): 20.9%
- %G2-M (T-47D cells; listed as Five): 26.27%
- %S (T-47D cells; listed as Five): 27.42%
- GI % (SK-MEL-5): 95%
- GI50 (SK-MEL-5; Homo sapiens): 1570 nM
- CC50 ([2]; Homo sapiens, read-out: LC50): > 100000 nM
- GI50 ([2]; Homo sapiens, subpanel value, Breast cancer): 1200 nM
- GI50 ([2]; subpanel value, Breast cancer): 1230 nM
- TGI ([2]; subpanel value, Breast cancer): 84170 nM
- CC50 ([3]; Homo sapiens, read-out: LC50): > 100000 nM
- GI50 ([3]; Homo sapiens, subpanel value, Renal cancer): 1900 nM
- GI50 ([3]; subpanel value, Renal cancer): 1920 nM
- TGI ([3]; subpanel value, Renal cancer): 91540 nM
- CC50 ([4]; Homo sapiens, read-out: LC50): > 100000 nM
- GI50 ([4]; Homo sapiens, subpanel value, Colon cancer): 1600 nM
- GI50 ([4]; subpanel value, Colon cancer): 1560 nM
- TGI ([4]; subpanel value, Colon cancer): c (Compounds showed values > 100 μM)

SMILES: NS(=O)(=O)c1ccc(Cn2c(SCC(=O)NN=Cc3ccccc3O)nc3ccccc3c2=O)cc1 [Compound 6, 4-((2-((2-(2-(2-Hydroxybenzylidene)hydrazineyl)-2-oxoethyl)thio)-4-oxoquinazolin-3(4H)-yl)methyl)benzenesulfonamide]
- GI % (SR): 76%
- GI % (HL-60(TB)): 60%
- GI % (SF-268): 62%
- GI % (UACC-62): 62%
- GI % (HCT-15): 25%
- GI % (SW-620): 40%
- Apoptosis Early (MOLT4 cells [5]): 19.2% and 19.22%
- Apoptosis Total (MOLT4 cells [5]): 35.06%
- Necrosis (MOLT4 cells [5]): 3.23%
- GI % (MDA-MB-231/ATCC): 70%
- GI % (T-47D): 67%
- GI % (NCI-H226): 43%
- GI % (MALME-3M): 41%
- GI % (UACC-257): 30%
- IC50 (COX-2): 4470 ± 90 nM
- GI % (A549/ATCC): 31%
- GI % (SN12C): 44%
- IC50 (EGFR): 51.5 nM
- IC50 (HER2): 44.1 nM
- GI % (OVCAR-3): 87%
- MG% (mean growth percent) (59 cancer cell lines): 55.2% and 55.22%
- IC50 (CDK9): 96.1 nM
- GI % (K-562): 64%
- GI % (NCI-H522): 101%
- GI % (BT-549): 44%
- GI % (KM12): 61%
- %G0-G1 (MOLT4 cells [6]): 89.04%
- %G2-M (MOLT4 cells [6]): 1.40%
- GI % (SK-MEL-5): 42%
